# Data taken from patent US12139481B2, “Compositions comprising macrocycle derivatives incorporating bridged macrocycles and methods of producing and using same” (Southwestern Oklahoma State University, priority 2015, dated 2024).
# Columns and labels:
# [1] = system: Cryptococcus neoformans ATCC 90113; assay: Antimicrobial microdilution assay against Cryptococcus neoformans (modified CLSI/NCCLS, optical density); type: cell-based; settings: for X more potent than Amphotericin B: C. neoformans, ratio of molar IC50 to Amphotericin B; for C. neoformans IC50 / IC50: in vitro, C. neoformans ATCC 90113; for IC50: read-out: C. neoformans IC50 (mol/L)
# Procedure, shortened: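 Fungicidal endpoint taken by subculturing 5 μL from each clear well onto agar, MFC being the lowest concentration with no regrowth. Duplicate wells of serially diluted compound (20% DMSO/saline) in RPMI pH 6.0, read at 630 nm pre- and post-incubation, under modified CLSI methods. IC50 means 50% growth inhibition against controls.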
# [2] = system: Staphylococcus aureus ATCC 29213; assay: Antibacterial broth dilution assay against S. aureus (modified CLSI); type: cell-based; settings: for S. aureus IC50 / IC50: in vitro; for IC50: converted with molecular weight; for X more potent than ciprofloxacen: molar IC50 ratio versus ciprofloxacen
# Experimental: (§1) General Experimental Procedures. All organisms were obtained from the American Type Culture Collection (Manassas, VA) and include the fungi Candida albicans ATCC 90028, C. glabrata ATCC 90030, C. krusei ATCC 6258, and Cryptococcus neoformans ATCC 90113, and the bacteria Staphylococcus aureus ATCC 29213 and methicillin-resistant S. aureus ATCC 33591 (MRS). All organisms were tested using modified versions of the CLSI (formerly NCCLS) methods. For all organisms, optical density was used to monitor growth (NCCLS, Reference Method for Broth Dilution Antifungal Susceptibility Testing of Yeasts; Approved Standard M27-A2. National Committee on Clinical Laboratory Standards, 2002 22 (15); and NCCLS, Methods for Dilution Antimicrobial Susceptibility Tests for Bacteria that Grow Aerobically; Approved Standard, Seventh Edition M7-A7. National Committee on Clinical Laboratory Standards, 2006. 26(2)).
# (§2) Samples (dissolved in DMSO) were serially-diluted in 20% DMSO/saline and transferred (10 μL) in duplicate to 96 well flat bottom microplates. Inocula were prepared by correcting the OD630 of microbe suspensions in incubation broth [RPMI 1640/0.2% dextrose/0.03% glutamine/MOPS @ pH 6.0 (Cellgro) for Candida spp., Sabouraud Dextrose for C. neoformans, and cation-adjusted Mueller-Hinton (Difco) @ pH 7.3 for Staphylococcus spp. to afford an assay volume of […] and final target inocula of: Candida spp. and C. neoformans: 1.5×10^3, and Staphylococcus spp.: 5.0×10^5 CFU/ml. Final sample test concentrations were 1/100th the DMSO stock concentration. […] All organisms were read at either 530 nm using the Biotek Powerwave XS plate reader (Bio-Tek Instruments, Vermont) prior to and after incubation: Candida spp. at 35° C. for 46-50 h, Staphylococcus spp. at 35° C. for 16-20 h, and C. neoformans at 35° C. for 70-74 h. IC50s (concentrations that afford 50% inhibition relative to controls) were calculated using XLfit 4.2 software (IDBS, Alameda, CA) using fit model 201. The MIC is defined as the lowest test concentration that allows no detectable growth. Minimum fungicidal or bactericidal concentrations were determined by removing 5 μl from each clear (or blue) well, transferring to fresh media, and incubating as previously mentioned. The MFC/MBC is defined as the lowest test concentration that kills the organism (allows no growth).
# (§3) Primary Analysis. Samples were tested in duplicate at one test concentration (50 μg/mL), and percent inhibitions were calculated relative to blank and growth controls. Samples showing 50% inhibition in at least one test organism were selected for dose response (Secondary) studies.
# (§4) Secondary Analysis. Extracts from the Primary Assay, and first-run pure compounds and column fractions were tested in duplicate at 3 test concentrations (5-fold dilutions). Samples dissolved to 20 mg/mL in DMSO were tested at 200, 40, and 8 μg/mL. Samples dissolved to 2 mg/mL in DMSO were tested at 20, 4, and 0.8 μg/mL.
# [3] = system: L. donovani promastigotes; assay: Antileishmanial Alamar Blue assay on promastigotes; type: cell-based, Leishmania donovani; settings: for X more potent than Pentamidine: L. donovani, ratio of molar IC50 to Pentamidine; for L. donovani IC50 / IC50: promastigotes, 48 hours, Alamar Blue; for IC50: read-out: L. donavani IC50
# Experimental: Methods: The compounds were screened in vitro against the promastigote forms of the leishmania parasites employing the Alamar Blue assay as discussed below.
# Antileishmanial activity of the compounds was tested in vitro against a culture of L. donovani promastigotes, grown in RPMI 1640 medium supplemented with 10% fetal calf serum (FCS, Gibco Chem. Co., Grand Island, NY) at 26° C. A 3-day-old culture was diluted to 5×10^5 promastigotes/mL. Drug dilutions (50-3.1 μg/mL) were prepared directly in cell suspension in 96-well plates. Plates were incubated at 26° C. for 48 hours, and growth of leishmania promastigotes was determined by Alamar Blue assay. Standard fluorescence was measured on a FLUOstar® Galaxy plate reader (BMG Lab Technologies, Ortenberg, Germany) at an excitation wavelength of 544 nm and emission wavelength of 590 nm. Pentamidine and amphotericin B were used as the standard antileishmanial agents. Percent growth was calculated and plotted versus test concentration for computing the IC50 values.
# C. glabrata ATCC 90030 = assay: Antifungal broth dilution assay against C. glabrata (modified CLSI); type: cell-based, Candida glabrata; settings: for C. glabrata IC50 / IC50: in vitro; for IC50: converted with molecular weight; for X more potent than Amphotericin B: molar IC50 ratio versus amphotericin B
# Experimental: as §1, §2, §3, §4
Compound,X more potent than Amphotericin B [1],C. neoformans IC50 [1],IC50 [1],S. aureus IC50 [2],IC50 [2],X more potent than ciprofloxacen [2],X more potent than Pentamidine [3],L. donovani IC50 [3],IC50 [3],C. glabrata IC50 (C. glabrata ATCC 90030),IC50 (C. glabrata ATCC 90030),X more potent than Amphotericin B (C. glabrata ATCC 90030)
"Clc1cc(CN2CCN3CCN(CCN(Cc4ccc(CN5CCN6CCN(CC5)CCN(Cc5cc(Cl)nc(Cl)c5)CC6)cc4)CC3)CC2)cc(Cl)n1 [PW111A, p-dcp2-CB-cyclens]",4.88,0.040 µg/mL,0.0488 µM,5.530 µg/mL,6.75 µM,0.04,0.34,12.89 µg/mL,15.7 µM,–,–,–
[Zn2(m-cyclam-homocyclen)(OAc)2][PF6]2 [AW052B],0.23,1.150 µg/mL,1.04 µM,6.580 µg/mL,5.94 µM,0.05,0.33,17.60 µg/mL,15.9 µM,–,–,–
"O.[Cl][Fe-2]([Cl])([Cl])[Cl].[Fe+2].c1ccc(CN2CCCN3CCCN(CCCN(Cc4ccccc4)CC3)CC2)cc1 [BME09, [Fe(Bn2PBCyclam)][FeCl4]•H2O]",0.15,1.070 µg/mL,1.55 µM,5.130 µg/mL,7.41 µM,0.04,0.26,14.10 µg/mL,20.4 µM,–,–,–
[Ni2(p-CB-cyclam-cyclen)(OAc)2][PF6]2 [CMB028],0.19,1.330 µg/mL,1.23 µM,–,–,–,0.19,30.69 µg/mL,28.4 µM,4.490 µg/mL,4.16 µM,0.34
[m-(BMBCyclams)]Br2 [DJD05],0.05,3.250 µg/mL,4.56 µM,–,–,–,0.21,18.18 µg/mL,25.5 µM,4.213 µg/mL,5.91 µM,0.24
"CC(=O)[O-].CC(=O)[O-].CN1CCCN2CCN(CCCN(Cc3ccc(CN4CCCN5CCN(C)CCCN(CC5)CC4)cc3)CC2)CC1.F[P-](F)(F)(F)(F)F.F[P-](F)(F)(F)(F)F.[Zn+2].[Zn+2] [KS34, [Zn2(p-CB-cyclams)(OAc)2](PF6)2]",0.41,0.650 µg/mL,–,–,–,–,0.25,23.49 µg/mL,–,15.760 µg/mL,–,0.10
"CC(=O)[O-].CC(=O)[O-].[Cu+2].c1ccc(CN2CCCN3CCCN(CCCN(Cc4ccccc4)CC3)CC2)cc1 [DJD20, Cu(Bn2PBCyclam)(OAc)2]",0.05,3.130 µg/mL,5.2 µM,6.880 µg/mL,11.4 µM,0.02,0.22,14.65 µg/mL,24.3 µM,–,–,–
[Co2(p-SB-cyclam-cyclen)(OAc)2][PF6]2 [CMB016A],0.16,1.570 µg/mL,1.49 µM,–,–,–,0.17,33.81 µg/mL,32.1 µM,1.100 µg/mL,1.04 µM,1.36
"CC(=O)[O-].F[P-](F)(F)(F)(F)F.[Co+2].c1ccc(CN2CCN3CCCN(CC2)CCN(Cc2ccccc2)CC3)cc1 [AW038, [Co(Bn2PBCyclen)(C2H3O2)]PF6]",0.04,4.370 µg/mL,6.67 µM,5.080 µg/mL,7.75 µM,0.04,0.17,20.66 µg/mL,31.5 µM,5.800 µg/mL,8.85 µM,0.16
"CC(=O)[O-].CC(=O)[O-].F[P-](F)(F)(F)(F)F.F[P-](F)(F)(F)(F)F.O.O.[Co+2].[Co+2].c1cc(CN2CCNCCN3CCN(CC3)CC2)cc(CN2CCNCCN3CCN(CC3)CC2)c1 [OB36, [Co2(m-SB-Cyclens)(OAc)2][PF6]2•2H2O]",0.32,≤ 0.800 µg/mL,0.754 µM,–,–,–,–,–,–,3.720 µg/mL,3.51 µM,0.40
"C1CNCCN2CCCNCCN(C1)CCC2 [DJD27, H2PBCyclam]",0.03,1.830 µg/mL,7.61 µM,–,–,–,–,–,–,3.380 µg/mL,14.1 µM,0.10
[p-(DCP-BMBCyclams)]Br4 [SLK26],–,–,–,–,–,–,0.43,14.76 µg/mL,12.4 µM,5.705 µg/mL,4.78 µM,0.30
"C1CNCCN2CCCNCCN(C1)CCC2.CC(=O)[O-].F[P-](F)(F)(F)(F)F.F[P-](F)(F)(F)(F)F.O.[Co+2].[NH4+] [SLK38B, [Co(H2PBCyclam)(OAc)]PF6•NH4PF6•H2O]",0.03,6.230 µg/mL,9.1 µM,–,–,–,–,–,–,0.375 µg/mL,0.548 µM,2.59
